{
  "source": "patent US20040038888A1",
  "about": "(priority 2002, published 2004)",
  "key": {"[1]": {"test_system": "mouse adult neural stem cells", "assay": "Intracellular ATP assay, adult mouse NSC, non-adherent culture", "type": "cell-based", "experimental": "The anterior lateral wall of the lateral ventricle of 5-6 week old mice was enzymatically dissociated in 0.8 mg/ml hyaluronidase and 0.5 mg/ml trypsin in DMEM containing 4.5 mg/ml glucose and 80 units/ml DNase at 37° C. for 20 min. The cells were gently triturated and mixed with three volumes of Neurosphere medium (DMEM/F12, B27 supplement, 12.5 mM HEPES pH7.4) containing 20 ng/ml EGF (unless otherwise stated), 100 units/ml penicillin and 100μg/ml streptomycin. After passing through a 70 μm strainer, the cells were pelleted at 160×g for 5 min. The supernatant was subsequently removed and the cells resuspended in Neurosphere medium supplemented as above, plated out in culture dishes and incubated at 37° C. Neurospheres were ready to be split approximately 7 days after plating.\nTo split neurosphere cultures, neurospheres were collected by centrifugation at 160×g for 5 min. The neurospheres were resuspended in 0.5 ml Trypsin/EDTA in HBSS (1×), incubated at 37° C. for 2 min and triturated gently to aid dissociation. Following a further 3 min incubation at 37° C. and trituration, 3 volumes of ice cold NSPH-media-EGF were added to stop further trypsin activity. The cells were pelleted at 220×g for 4 min, resuspended in fresh Neurosphere medium supplemented with 20 ng/ml EGF and 1 nM bFGF plated out and incubated at 37° C.\nMouse neurospheres, cultured as described above, from passage 2, were seeded in DMEM/F12 supplemented with B27 into a 96-well plate as single cells (10000 cells/well) to the substances to be measured were added at the concentrations indicated. After 3 days incubation, intracellular ATP was measured using the ATP-SL kit from BioThema, Sweden, according to the manufacturer's instructions. PACAP and VIP were purchased from Bachem. Maxadilan was a kind gift from Richard G Titus, Dept Microbiology, Immunology and Pathology, College of Veterinary Medicine and Biological Sciences, Colorado State University.\nIn experiments where signalling pathways were examined, cells were seeded as single cells as mentioned above. PACAP, 100 nM, was co incubated with 10 uM PKA inhibitor H89 (Alexis-Biochemicals) or 1 uM PLC inhibitor U73122 (Alexis-Biochemicals) or 1 uM of the PKC inhibitor Gö6976 (Sigma-Aldrich). Cells were incubated for 4 days before measurements of ATP.\nIn the experiment analysing the combinatory effect of PACAP and EGF, PACAP at 100 nM was co-incubated with 3 nM EGF for 3 days."}, "[2]": {"test_system": "mouse adult neural stem cells", "assay": "Thymidine incorporation, adult mouse NSC, non-adherent culture", "type": "cell-based", "details": "non-adherent conditions, 3 days, all PACAP treatments relative to controls", "experimental": "To determine thymidine incorporation into DNA, neurospheres were split and seeded in Neurosphere medium as single cells in 96-well plates, 10,000 cells/well. Substances to be measured were added in quadruplicates and cells were incubated at 37° C. for 3 days. 3H-thymidine, 10 uCi/ml, was present the last 24 hours. Cells were harvested on to a filter paper and radioactivity was measured. 3H-thymidine (6,7 Ci/mmol) was from PerkinElmer."}, "CREB phosphorylation [3]": {"test_system": "CREB phosphorylation", "assay": "Western blot of phosphorylated CREB, adult mouse NSC, non-adherent", "type": "cell-based", "details": "10 nM PACAP", "experimental": "(§1) Adult mouse NSC and aHNSC were prepared and cultured as stated in Example 2 (Method A) and Example 1 (Method A). Cultures were exposed to either 10 nM PACAP or EGF (1 nM) and FGF (1 nM) for the times indicated. After treatment, the cells were lysed in lysis buffer, as shown in Patrone et al. (Patrone, Andersson et al. 1999). DNA content was detemined by the use of a Pico Green-kit for ds DNA quantitation of cell extracts. Total protein measurements were performed with Nano Orange-kit. Equal amounts of protein were run on a gradient gel 4-12% Bis-Tris gel (NuPage/Mops buffer) and transferred to a nitrocellulose membrane. Western blot was performed and phosphorylated CREB was labelled using a rabbit anti phospho-CREB (1:1000, Upstate biotechnology), a secondary anti rabbit HRP antibodies (1:10.000). Phosphorylated CREB protein bands (43 kD) were detected using the ECL-kit (Amersham)."}, "CREB phosphorylation [4]": {"test_system": "CREB phosphorylation", "assay": "Western blot of phosphorylated CREB, undifferentiated aHNSC", "type": "cell-based, human", "details": "10 nM PACAP", "experimental": "A biopsy from the anterior lateral wall of the lateral ventricle was taken from an adult human patient and enzymatically dissociated in PDD (Papain 2.5 U/ml; Dispase 1 U/ml; Dnase 1 250 U/ml) in DMEM containing 4.5 mg/ml glucose and 37° C. for 20 min. The cells were gently triturated and mixed with three volumes of Human Neural Stem Cell Plating Medium (HNSCPM) (DMEM/F12; 10% fetal bovine serum (FBS)). The cells were pelleted at 250×g for 5 min. The supernatant was subsequently removed and the cells resuspended in HNSCPM, plated out on fibronectin coated culture dishes and incubated at 37° C. in 5% CO2. The following day the expansion of the culture was initiated by change of media to aHNSC culture media (DMEM/F12; BIT 9500; EGF 20 ng/ml; FGF2 20 ng/ml). The aHNSC were split using trypsin and EDTA under standard conditions. FBS was subsequently added to inhibit the reaction and the cells collected by centrifugation at 250×g for 5 min. The aHNSC were replated in aHNSC culture media.\nAdult mouse NSC and aHNSC were prepared and cultured as stated in Example 2 (Method A) and Example 1 (Method A). Cultures were exposed to either 10 nM PACAP or EGF (1 nM) and FGF (1 nM) for the times indicated. […] DNA content was detemined by the use of a Pico Green-kit for ds DNA quantitation of cell extracts. […] Phosphorylated CREB protein bands (43 kD) were detected using the ECL-kit (Amersham)."}, "primary adult NSC": {"test_system": "primary adult NSC", "assay": "Culture of neurospheres for counting and photographing", "type": "cell-based, mouse", "details": "PACAP 100 nM in place of EGF, 7 days, versus control", "experimental": "Anterior lateral wall of the lateral ventricle was dissociated as described in Example 2 (Method A), and the cells resuspended in Neurosphere medium without EGF. The cell suspension was divided into a 24-well plate with triplicates of control (no addition), PACAP treated and EGF (1 nM) treated cells. The final concentration of PACAP was 100 nM. After 7 days the spheres were counted and photographed using a Nikon Eclipse TE300 microscope and Nikon Spot Insight camera."}, "CREB phosphorylation [5]": {"test_system": "CREB phosphorylation", "assay": "Western blot of phosphorylated CREB, differentiating adult mouse NSC, adherent", "type": "cell-based", "details": "10 nM PACAP", "experimental": "as §1, with “Example 5 (Method A & B) and Example” for “Example”, “A), respectively.” for “A) and Example 1 (Method A).”, “to” for “to either”, “PACAP” for “PACAP or EGF (1 nM) and FGF (1 nM)”"}},
  "data": [
    {"substance": "pituitary adenylate cyclase-activating polypeptide [PACAP]", "values": [
      {"measurement": "intracellular ATP levels", "setting": "[1]; PACAP 100 nM, 4 days, relative to control", "value": "significantly increases intracellular ATP levels"},
      {"measurement": "intracellular ATP levels, and hence NSC number", "setting": "[1]; PACAP 100 nM, EGF 3 nM, alone or combined, 3 days", "value": "increased intracellular ATP levels"},
      {"measurement": "intracellular ATP levels, and hence cell number", "setting": "[1]; varying concentrations, non-adherent conditions, 3 days, relative to control, dose-dependent", "value": "statistically significant increase in intracellular ATP levels"},
      {"measurement": "incorporation of tritiated thymidine", "setting": "[2]", "value": "Greater incorporation of tritiated thymidine"},
      {"measurement": "CREB phosphorylation", "setting": "CREB phosphorylation [3]; 15 min exposure", "value": "upregulated"},
      {"measurement": "CREB phosphorylation", "setting": "CREB phosphorylation [3]; 240 min", "value": "return to basal levels"},
      {"measurement": "CREB phosphorylation", "setting": "CREB phosphorylation [4]; 15 min", "value": "strong upregulation"},
      {"measurement": "CREB phosphorylation", "setting": "CREB phosphorylation [4]; 240 min", "value": "slightly above basal levels"},
      {"measurement": "sizes and number of neurospheres", "setting": "primary adult NSC", "value": "observably greater than that of the control"},
      {"measurement": "CREB phosphorylation", "setting": "CREB phosphorylation [5]; 15 min exposure", "value": "upregulated"},
      {"measurement": "CREB phosphorylation", "setting": "CREB phosphorylation [5]; 240 min", "value": "slightly above basal levels"}
    ]}
  ]
}
